Experimental data reported in publication PMC3914206.

Experiments:
Format in all cases: binding
Parameters in all cases: KINOMEscan: ABL1(F317L)-phosphorylated / KINOMEscan: ABL1(H396P)-nonphosphorylated / KINOMEscan: ABL1(H396P)-phosphorylated / KINOMEscan: ABL1(M351T)-phosphorylated / KINOMEscan: ABL1(T315I)-phosphorylated / KINOMEscan: ABL1-nonphosphorylated / KINOMEscan: ABL1-phosphorylated / KINOMEscan: ACVR2A / KINOMEscan: ACVR2B / KINOMEscan: ADCK3 / KINOMEscan: ADCK4 / KINOMEscan: AKT1 / KINOMEscan: AKT3 / KINOMEscan: ALK / KINOMEscan: ARK5 / KINOMEscan: AURKA / KINOMEscan: AURKC / KINOMEscan: BIKE / KINOMEscan: BMPR1A / KINOMEscan: BMPR1B / KINOMEscan: BMX / KINOMEscan: BRK / KINOMEscan: BRSK1 / KINOMEscan: BRSK2 / KINOMEscan: CAMK1 / KINOMEscan: CAMK1D / KINOMEscan: CAMK1G / KINOMEscan: CAMK2A / KINOMEscan: CAMK2B / KINOMEscan: AAK1 / KINOMEscan: CAMK2D / KINOMEscan: CAMK2G / KINOMEscan: ABL1(F317I)-nonphosphorylated / KINOMEscan: ABL1(F317I)-phosphorylated / KINOMEscan: ABL1(F317L)-nonphosphorylated: unit: % Ctrl
Settings in all cases: Compound Concentration 10 µM
panel of 442 kinases [1] = target: T1, panel of 442 kinases (Homo sapiens, UniProt P00533, DEL752-759)
T1 construct: purchased KINOMEscan
From the text: (§1) We assessed the selectivity of members of this scaffold using the KINOMEscan methodology across a near comprehensive panel of 442 kinases [[18,27]].

panel of 442 kinases [2] = target: T2, panel of 442 kinases (Homo sapiens, UniProt Q13557)
T2 construct: purchased KINOMEscan
From the text: as §1

panel of 442 kinases [3] = target: T3, panel of 442 kinases (Homo sapiens, UniProt Q16816)
T3 construct: purchased KINOMEscan
From the text: as §1

panel of 442 kinases [4] = target: T4, panel of 442 kinases (Homo sapiens, UniProt Q9Y6E0)
T4 construct: purchased KINOMEscan
From the text: as §1

T2 sequence (Q13557 whole entry): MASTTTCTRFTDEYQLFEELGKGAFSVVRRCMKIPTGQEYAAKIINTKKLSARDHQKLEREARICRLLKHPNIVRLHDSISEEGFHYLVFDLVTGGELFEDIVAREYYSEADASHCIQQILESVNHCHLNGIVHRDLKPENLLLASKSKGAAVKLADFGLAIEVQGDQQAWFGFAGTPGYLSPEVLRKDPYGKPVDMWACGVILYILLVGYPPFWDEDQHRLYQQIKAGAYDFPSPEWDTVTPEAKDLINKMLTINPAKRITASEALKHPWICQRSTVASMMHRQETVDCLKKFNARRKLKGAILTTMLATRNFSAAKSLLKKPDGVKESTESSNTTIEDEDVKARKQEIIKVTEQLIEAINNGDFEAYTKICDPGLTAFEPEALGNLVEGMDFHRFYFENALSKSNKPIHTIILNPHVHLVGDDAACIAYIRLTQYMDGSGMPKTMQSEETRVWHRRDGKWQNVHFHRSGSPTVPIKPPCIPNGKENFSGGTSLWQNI
T1 sequence (P00533 with tags, fused parts or gaps DEL752-759): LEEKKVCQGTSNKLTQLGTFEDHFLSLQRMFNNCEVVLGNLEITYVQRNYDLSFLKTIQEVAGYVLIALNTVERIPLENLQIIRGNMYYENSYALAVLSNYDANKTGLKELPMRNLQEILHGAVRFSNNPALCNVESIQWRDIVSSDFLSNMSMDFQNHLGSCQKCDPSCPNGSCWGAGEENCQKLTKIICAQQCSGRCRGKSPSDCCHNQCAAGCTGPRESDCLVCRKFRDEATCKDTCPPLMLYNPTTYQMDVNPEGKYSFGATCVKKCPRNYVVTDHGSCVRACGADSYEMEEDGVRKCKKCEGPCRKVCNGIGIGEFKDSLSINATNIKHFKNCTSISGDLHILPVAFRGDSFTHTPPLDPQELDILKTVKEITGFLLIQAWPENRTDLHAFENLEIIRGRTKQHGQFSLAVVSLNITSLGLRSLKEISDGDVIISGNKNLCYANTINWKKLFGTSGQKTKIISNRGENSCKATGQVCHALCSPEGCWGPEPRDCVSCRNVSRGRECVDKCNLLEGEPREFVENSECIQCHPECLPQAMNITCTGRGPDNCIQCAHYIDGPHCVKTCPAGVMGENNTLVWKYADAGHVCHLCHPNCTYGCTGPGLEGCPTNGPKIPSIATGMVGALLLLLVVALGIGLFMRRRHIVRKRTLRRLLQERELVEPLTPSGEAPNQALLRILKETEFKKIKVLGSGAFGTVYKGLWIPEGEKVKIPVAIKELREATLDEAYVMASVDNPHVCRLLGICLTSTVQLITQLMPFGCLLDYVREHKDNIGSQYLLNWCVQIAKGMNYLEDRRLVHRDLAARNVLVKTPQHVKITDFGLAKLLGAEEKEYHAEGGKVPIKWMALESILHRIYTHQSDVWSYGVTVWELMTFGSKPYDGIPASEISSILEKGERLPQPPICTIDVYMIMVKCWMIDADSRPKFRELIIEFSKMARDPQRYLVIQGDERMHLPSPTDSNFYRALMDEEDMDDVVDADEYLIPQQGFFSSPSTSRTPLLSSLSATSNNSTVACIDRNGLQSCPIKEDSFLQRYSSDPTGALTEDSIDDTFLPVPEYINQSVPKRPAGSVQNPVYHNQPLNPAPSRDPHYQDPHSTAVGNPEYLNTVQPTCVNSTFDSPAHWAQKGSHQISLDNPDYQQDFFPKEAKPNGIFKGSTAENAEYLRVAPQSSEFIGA
T4 sequence (Q9Y6E0 whole entry): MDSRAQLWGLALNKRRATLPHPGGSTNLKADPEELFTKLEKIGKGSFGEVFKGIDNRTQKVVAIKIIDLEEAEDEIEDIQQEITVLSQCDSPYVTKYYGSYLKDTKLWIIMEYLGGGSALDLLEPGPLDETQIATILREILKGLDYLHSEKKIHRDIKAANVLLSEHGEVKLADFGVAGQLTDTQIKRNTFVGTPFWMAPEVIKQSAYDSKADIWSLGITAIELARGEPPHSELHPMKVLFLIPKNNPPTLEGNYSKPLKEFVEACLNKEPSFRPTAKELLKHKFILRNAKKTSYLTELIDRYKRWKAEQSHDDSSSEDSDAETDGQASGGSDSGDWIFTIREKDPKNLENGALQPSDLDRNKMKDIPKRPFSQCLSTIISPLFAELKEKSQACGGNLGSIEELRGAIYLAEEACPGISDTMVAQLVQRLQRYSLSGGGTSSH
T3 sequence (Q16816 whole entry): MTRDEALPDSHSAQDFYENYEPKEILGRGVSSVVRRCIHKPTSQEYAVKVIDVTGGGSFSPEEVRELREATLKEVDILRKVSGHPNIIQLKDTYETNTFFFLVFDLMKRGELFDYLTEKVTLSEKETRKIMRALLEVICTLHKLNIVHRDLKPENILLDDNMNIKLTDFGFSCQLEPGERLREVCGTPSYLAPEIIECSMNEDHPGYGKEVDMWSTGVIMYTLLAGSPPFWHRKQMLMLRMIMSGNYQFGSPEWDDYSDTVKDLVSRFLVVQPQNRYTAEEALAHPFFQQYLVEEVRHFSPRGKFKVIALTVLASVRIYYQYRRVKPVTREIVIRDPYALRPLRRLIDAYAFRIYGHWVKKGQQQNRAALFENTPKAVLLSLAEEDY

Structure (SMILES) | KINOMEscan: EGFR(S752-I759del) (panel of 442 kinases [1]) | KINOMEscan: CAMK2D (panel of 442 kinases [2]) | KINOMEscan: PHKG1 (panel of 442 kinases [3]) | KINOMEscan: MST3 (panel of 442 kinases [4])
COc1cc(C(=O)N2CCC(N3CCN(C)CC3)CC2)ccc1Nc1ncc2c(n1)N(C)c1ccccc1C(=O)N2C [15 (LRRK2-IN-1)] | 99 | 28 | 54 | 87
COc1cc(C(=O)N2CCC(N3CCN(C)CC3)CC2)ccc1Nc1ncc2c(n1)N1CCc3cccc(c31)C(=O)N2C [Compound 24] | 80 | 62 | 75 | 73
COc1cc(C(=O)N2CCC(N3CCN(C)CC3)CC2)ccc1Nc1ncc2c(n1)N(C1CCCC1)c1ccccc1C(=O)N2C [Compound 25, 11-cyclopentyl-2-((2-methoxy-4-(4-(4-methylpiperazin-1-yl)piperidine-1-carbonyl)phenyl)amino)-5-methyl-5H-benzo[e]pyrimido[5,4-b][1,4]diazepin-6(11H)-one] | 80 | 100 | 100 | 88
CCOc1cc(C(=O)N2CCC(N3CCN(C)CC3)CC2)ccc1Nc1ncc2c(n1)N(C1CCCC1)c1ccccc1C(=O)N2C [Compound 26] | 86 | 96 | 100 | 100
